From ChEMBL document CHEMBL3132854, “Synthesis and anticancer activity evaluation of resveratrolchalcone conjugates” (2014)

Legend:
Type in all cases: functional
A498 = experiment: Cytotoxicity against human A498 cells by sulforhodamine B assay
CCRF-CEM = experiment: Cytotoxicity against human CCRF-CEM cells by sulforhodamine B assay
SK-MEL-28 = experiment: Cytotoxicity against human SK-MEL-28 cells by sulforhodamine B assay
Malme-3M = experiment: Cytotoxicity against human MALME-3M cells by sulforhodamine B assay
SNB-75 = experiment: Cytotoxicity against human SNB75 cells by sulforhodamine B assay
K562 = experiment: Cytotoxicity against human K562 cells by sulforhodamine B assay
HT-29 = experiment: Cytotoxicity against human HT-29 cells by sulforhodamine B assay
[1] = Cytotoxicity against human OVCAR4 cells by sulforhodamine B assay
MDA-MB-468 = experiment: Cytotoxicity against human MDA-MB-468 cells by sulforhodamine B assay
KM12 = experiment: Cytotoxicity against human KM12 cells by sulforhodamine B assay
NCI-H23 = experiment: Cytotoxicity against human NCI-H23 cells by sulforhodamine B assay
[2] = read-out: LC50 (the source's name)

COc1ccc(C(=O)/C=C/c2ccc(/C=C/c3cc(OC)c(OC)c(OC)c3)cc2)cc1
GI50 (A498): 18.6 µM | TGI (A498): > 100 µM | CC50 (A498; [2]): > 100 µM | GI50 (CCRF-CEM): 4.15 µM | TGI (CCRF-CEM): > 100 µM | CC50 (CCRF-CEM; [2]): > 100 µM | GI50 (SK-MEL-28): 1.69 µM | TGI (SK-MEL-28): > 100 µM | CC50 (SK-MEL-28; [2]): > 100 µM | GI50 (Malme-3M): 13.2 µM | TGI (Malme-3M): > 100 µM | CC50 (Malme-3M; [2]): > 100 µM | GI50 (SNB-75): 5.5 µM | TGI (SNB-75): 47.7 µM | CC50 (SNB-75; [2]): > 100 µM | GI50 (K562): 3.03 µM | TGI (K562): > 100 µM | CC50 (K562; [2]): > 100 µM | GI50 (HT-29): 4.17 µM | TGI (HT-29): > 100 µM | CC50 (HT-29; [2]): > 100 µM | GI50 ([1]; OVCAR-4): 6.31 µM | TGI ([1]; OVCAR-4): 47.3 µM | CC50 ([1]; OVCAR-4, read-out: LC50 (the source's name)): > 100 µM | GI50 (MDA-MB-468): 3.39 µM | TGI (MDA-MB-468): 48.7 µM | CC50 (MDA-MB-468; [2]): > 100 µM | GI50 (KM12): 3.75 µM | TGI (KM12): 83.9 µM | CC50 (KM12; [2]): > 100 µM | GI50 (NCI-H23): 5.39 µM | TGI (NCI-H23): 65.9 µM | CC50 (NCI-H23; [2]): > 100 µM
